Assay results published in patent US20260250257A1, “ANTIBACTERIAL AND SYNERGISTIC ACTIVE COMPOUND AND USE THEREOF” (EAST CHINA UNIVERSITY OF SCIENCE AND TECHNOLOGY, priority 2023, published 2026).
≈ marks a conversion by molar mass, not a printed value.

Columns and labels:
Assay type in all cases: cell-based
[1] = test system: ATCC9027 strain (Pseudomonas aeruginosa); test: Checkerboard antibacterial synergistic activity test with polymyxin E (FIC); parameters: key: FIC≤0.5 synergy; 0.5–1 additive; 1–2 indifferent; ≥2 antagonism; settings: combined with polymyxin E
In short: (§1)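 FIC values come from a microdilution checkerboard crossing polymyxin E against the test compound in MH medium, with uninoculated blanks included. Incubation lasts 16 h at 37° C. Scoring: synergy at FIC ≤0.5, additivity between 0.5 and 1, indifference between 1 and 2, antagonism at 2 or above.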

[2] = test system: ATCC19606 strain (Acinetobacter baumannii); test: as above; parameters: key: FIC≤0.5 synergy; 0.5–1 additive; 1–2 indifferent; ≥2 antagonism; settings: combined with polymyxin E
In short: as §1

[3] = test system: ATCC25922 strain (Escherichia coli); test: as above; parameters: key: FIC≤0.5 synergy; 0.5–1 additive; 1–2 indifferent; ≥2 antagonism; settings: combined with polymyxin E
In short: as §1

[4] = test system: ATCC13883 strain (Klebsiella pneumoniae); test: as above; parameters: key: FIC≤0.5 synergy; 0.5–1 additive; 1–2 indifferent; ≥2 antagonism; settings: combined with polymyxin E
In short: as §1

[5] = test system: ATCC9027 strain (Pseudomonas aeruginosa); test: Broth microdilution, antibacterial activity of the compound used alone
Text: (§2) The broth microdilution method was used to test the antibacterial effects of the compounds of the present invention against various Gram-negative bacterial strains when used alone.

[6] = test system: ATCC19606 strain (Acinetobacter baumannii); test: as above
Text: as §2

[7] = test system: ATCC25922 strain (Escherichia coli); test: as above
Text: as §2

[8] = test system: ATCC13883 strain (Klebsiella pneumoniae); test: as above
Text: as §2

Row | Structure (SMILES) | Synergistic activity (FIC value) ATCC9027 [1] | Synergistic activity (FIC value) ATCC19606 [2] | Synergistic activity (FIC value) ATCC25922 [3] | Synergistic activity (FIC value) ATCC13883 [4] | Antibacterial activity of the compound of Formula I, ATCC9027 [5] [µg/mL] | Antibacterial activity of the compound of Formula I, ATCC19606 [6] [µg/mL] | Antibacterial activity of the compound of Formula I, ATCC25922 [7] [µg/mL] | Antibacterial activity of the compound of Formula I, ATCC13883 [8] [µg/mL] | MIC ([5]; read-out: Antibacterial activity of the compound of Formula I, ATCC9027) [µg/mL] | MIC ([6]; read-out: Antibacterial activity of the compound of Formula I, ATCC19606) [µg/mL] | MIC ([7]; read-out: Antibacterial activity of the compound of Formula I, ATCC25922) [µg/mL] | MIC ([8]; read-out: Antibacterial activity of the compound of Formula I, ATCC13883) [µg/mL]
1 | NC(N)=Nc1nc(-c2cccc(Oc3ccccc3I)c2)cs1 [Compound I-96] | 0.28 | 0.03 | 0.18 | 0.16 | 256 | 256 | 256 | 256 | – | – | – | –
2 | Cc1ccc(Oc2cccc(-c3coc(N=C(N)N)n3)c2)c(C)c1 [Compound I-92] | 0.04 | 0.38 | 0.04 | 0.19 | 256 | 256 | 256 | 256 | – | – | – | –
3 | CN(C)c1ccc(-c2nc(N=C(N)N)[nH]c2Cl)c(-c2ccco2)c1 [Compound I-78] | 0.63 | 0.75 | 0.5 | 0.38 | 128 | 256 | 256 | 256 | – | – | – | –
4 | NC(N)=Nc1nc(-c2cccc3cc(Cl)cc(Cl)c23)c(Br)s1 [Compound I-66] | 0.53 | 0.13 | 0.38 | 0.31 | 256 | 256 | 256 | 256 | – | – | – | –
5 | NC(N)=Nc1nc(-c2ccccc2Oc2ccccc2)cs1 [Compound I-1, 2-(4-(2-phenoxyphenyl)thiazol-2-yl)guanidine] | 0.52 | 1.25 | 1.25 | 0.53 | – | – | – | – | 256 (≈ 825 µM) | 256 (≈ 825 µM) | 256 (≈ 825 µM) | 256 (≈ 825 µM)
6 | Cc1ccccc1Oc1cccc(-c2coc(N=C3NCCCN3)n2)c1 [Compound I-152] | 0.04 | 0.38 | 0.04 | 0.19 | 256 | 256 | 256 | 256 | – | – | – | –
7 | Clc1cc(Cl)cc(-c2csc(N=C3NCCCN3)n2)c1 [Compound I-187] | 0.5 | 0.25 | 0.56 | 0.31 | 64 | 256 | 128 | 128 | – | – | – | –
8 | Cc1cccc2cccc(-c3csc(N=C(N)N)n3)c12 [Compound I-57] | 0.63 | 0.3 | 0.5 | 0.25 | 256 | 256 | 256 | 256 | – | – | – | –
9 | NC(N)=Nc1nc(-c2ccc(OS(N)(=O)=O)cc2)co1 [Compound I-29] | 1.25 | 0.26 | 1.25 | 1.25 | 256 | 256 | 256 | 256 | – | – | – | –
